Measured values reported in publication PMC3025325, “Identification of a κ-opioid agonist as a potent and selective lead for drug development against human African trypanosomiasis” (Biochemical Pharmacology, 2010).
Counter-ions that a name gives are not always drawn. Like-named read-outs stand apart in the source and are kept apart here.

Experiments:
[1] = test system: bloodstream forms of Trypanosoma brucei; assay: Resazurin cell viability assay, EC50 determinations against T. brucei; assay type: cell-based, T. b. brucei (strain 427)
MRC5 cells = assay: Resazurin cell viability counter-screen, EC50 determinations against mammalian cells; assay type: cell-based, human
[2] = Trypanosoma brucei, 72 h, read-out: EC50 vs. T. brucei
[3] = Homo sapiens, MRC5, 72 h, read-out: EC50 vs. MRC5
[4] = Trypanosoma brucei, 72 h, LOPAC hits (library screening), 3 days incubation, mean of 3 determinations weighted to standard error, read-out: EC50 vs. T. brucei
[5] = Homo sapiens, MRC5, 72 h, 3 days incubation, mean of 4 determinations weighted to standard error, read-out: EC50 vs. MRC5
[6] = Trypanosoma brucei, 72 h, read-out: EC50 of standard drugs against T. brucei
[7] = read-out: EC50 of standard drugs against T. brucei
[8] = Trypanosoma brucei, 72 h, LOPAC hits, 3 days incubation, mean of 3 determinations weighted to standard error, read-out: EC50 vs. T. brucei

Row | Molecule | EC50 [1, 2] | Selectivity (MRC5 cells) | EC50 (MRC5 cells; [3]) | other results
1 | Clc1ccc(C(c2ccc(Cl)cc2)n2cc[n+](CC(OCc3ccc(Cl)cc3Cl)c3ccc(Cl)cc3Cl)c2)cc1 (centres unmarked) [Calmidazolium chloride] | 0.51 ± 0.066 µM | 13 | 6.6 ± 0.75 µM | 
2 | CC[C@H](C)C(=O)O[C@H]1CCC=C2C=C[C@H](C)[C@H](CC[C@@H]3C[C@@H](O)CC(=O)O3)[C@H]21 [Mevastatin] |  | 2.2 | 2 ± 0.36 µM | EC50 [1, 4]: 0.94 ± 0.05 µM
3 | CCN(CC)CCCC(C)Nc1c2ccc(Cl)cc2nc2ccc(OC)cc12 (centres unmarked) [Quinacrine dihydrochloride] | 0.38 ± 0.013 µM | 5.0 | 1.9 ± 0.44 µM | 
4 | CNc1ccc2oc(C[C@H]3O[C@@]4(CC[C@H]3C)O[C@H]([C@H](C)C(=O)c3ccc[nH]3)[C@H](C)C[C@H]4C)nc2c1C(=O)O [Calcimycin] | 0.18 ± 0.013 µM | 4.2 | 0.75 ± 0.14 µM | 
5 | CCCCCCCCCCCCC/C=C/[C@@H](O)[C@@H](N)CO [Sphingosine] | 0.82 ± 0.078 µM | 5.7 | 4.6 ± 2.5 µM | 
6 | CCCn1c(=O)c2[nH]c(C3CCCC3)nc2n(CCC)c1=O [8-Cyclopentyl-1,3-dipropylxanthine] | 0.53 ± 0.053 µM | 31 |  | 
7 | CC[C@]1(O)C[C@@H]2CN(CCc3c([nH]c4ccccc34)[C@@](C(=O)OC)(c3cc4c(cc3OC)N(C)[C@H]3[C@@](O)(C(=O)OC)[C@H](OC(C)=O)[C@]5(CC)C=CCN6CC[C@]43[C@@H]65)C2)C1.O=S(=O)(O)O [Vinblastine sulfate salt] |  | 8.3 |  | EC50 ([1]; read-out: EC50 vs. T. brucei): 0.094 ± 0.006 µM; EC50 (MRC5 cells; read-out: EC50 vs. MRC5): 0.78 ± 0.91 µM
8 | Cc1cc(N)c2ccccc2[n+]1CCCCCCCCCC[n+]1c(C)cc(N)c2ccccc21 [Dequalinium dichloride] | 0.043 ± 0.0088 µM | 140 | 6.1 ± 1.5 µM | Selectivity / specificity for T. brucei over human fibroblasts (MRC5 cells): greater than 100 fold
9 | Cc1c2ccncc2c(C)c2c1[nH]c1ccccc12 [Ellipticine] |  | 3.7 |  | EC50 [1, 4]: 0.46 ± 0.045 µM; EC50 (MRC5 cells; [5]): 1.7 ± 0.62 µM
10 | CC1(C)CCC2=C(O1)c1ccccc1C(=O)C2=O [Beta-Lapachone] | 0.85 ± 0.13 µM | 10 | 8.6 ± 2.9 µM | 
11 | Oligomycin A |  | 120 |  | EC50 ([1]; read-out: EC50 vs. T. brucei): 0.15 ± 0.0031 µM; Selectivity / specificity for T. brucei over human fibroblasts (MRC5 cells): greater than 100 fold
12 | Nc1nc(N)nc(Nc2ccc([As]3SCC(CO)S3)cc2)n1 (centres unmarked) [melarsoprol] |  |  |  | EC50 [1, 6]: 0.00752 ± 0.00028 µM; EC50 [1, 7]: 0.008 µM
13 | Br.CN1Cc2sccc2C(c2ccc(O)c(O)c2)C1 (centres unmarked) [SKF 89145 hydrobromide, 4-(3,4-Dihydroxyphenyl)-6-methyl-4,5,6,7-tetrahydrothieno[2,3-c]pyridine HBr] | 0.61 ± 0.044 µM | 4.7 | 2.9 ± 0.2 µM | 
14 | CC1=C(/C=C/C(C)=C/C=C/C(C)=C/C(=O)Nc2ccc(O)cc2)C(C)(C)CCC1 [Retinoic acid p-hydroxyanilide] |  |  |  | EC50 ([1]; read-out: EC50 vs. T. brucei): 2.23 ± 0.27 µM
15 | NC(=O)c1cc(N2CC2)c([N+](=O)[O-])cc1[N+](=O)[O-] [CB 1954, 5-(1-Aziridinyl)-2,4-dinitrobenzamide] | 1.08 ± 0.09 µM |  |  | 
16 | COc1cc2c(CCNC(C)=O)c[nH]c2cc1O [6-Hydroxymelatonin] |  |  |  | EC50 ([1]; read-out: EC50 vs. T. brucei): 3.31 ± 0.23 µM
17 | Nc1ccn([C@H]2CC[C@@H](CO)O2)c(=O)n1 [2′,3′-Dideoxycytidine] | > 10 µM |  |  | 
18 | Cc1nc(-c2ccc(-c3ccc(C(=O)N4CCc5cc6c(cc54)C4(CCN(C)CC4)CO6)cc3)c(C)c2)no1 [SB 224289 hydrochloride, 1′-Methyl-5-([2′-methyl-4′-(5-methyl-1,2,4-oxadiazol-3-yl)biphenyl-4-yl]carbonyl)-2,3,6,7-tetrahydro-spiro(furo[2,3-f]indole-3,4′-piperidine)] |  |  |  | EC50 [1, 8]: 1.35 ± 0.28 µM
19 | CC(C)[C@H](CO)Nc1nc(Nc2cccc(Cl)c2)c2ncn(C(C)C)c2n1 [Purvalanol A] | 0.82 ± 0.055 µM | 12 |  | 
20 | O=C1Cc2c([nH]c3ccc([N+](=O)[O-])cc23)-c2ccccc2N1 [Alsterpaullone] | 0.4 ± 0.04 µM | 1.3 | 0.51 ± 0.17 µM | 
21 | N=C(N)SCCc1cccc(CCSC(=N)N)c1 [1,3-PBIT dihydrobromide, Phenylene-1,3-bis(ethane-2-isothiourea) dihydrobromide] |  |  |  | EC50 ([1]; read-out: EC50 vs. T. brucei): 1.58 ± 0.08 µM
22 | CCn1cnc2c(Nc3cccc(Cl)c3)nc(N[C@@H]3CCCC[C@@H]3N)nc21.Cl (relative stereo) [CGP-74514A, N^2-(cis-2-Aminocyclohexyl)-N^6-(3-chlorophenyl)-9-ethyl-9H-purine-2,6-diamine HCl] | 0.21 ± 0.0083 µM | 7.1 | 1.5 ± 0.62 µM | 
23 | C[n+]1cc2c3c(ccc2c2ccc4cc5c(cc4c21)OCO5)OCO3 [Sanguinarine chloride] | 0.24 ± 0.017 µM | 5.8 | 1.4 ± 0.35 µM | 
24 | O=C(/C=C/c1ccc(O)c(O)c1)OCCc1ccccc1 [Caffeic acid phenethyl ester] | 1.64 ± 0.13 µM |  |  | 
25 | NC[C@@H]1O[C@H](C23CC4CC(CC(C4)C2)C3)Cc2c1ccc(O)c2O (single isomer, unassigned; (-)) [A-77636 hydrochloride] |  |  |  | EC50 ([1]; read-out: EC50 vs. T. brucei): 2.21 ± 0.15 µM

Row | Molecule | EC50 [1, 2] | Selectivity (MRC5 cells) | EC50 (MRC5 cells; [3]) | other results
26 | O=C1Nc2ccccc2/C1=C1/Nc2ccccc2/C1=N\O [Indirubin-3′-oxime] |  |  |  | EC50 ([1]; read-out: EC50 vs. T. brucei): 1.28 ± 0.09 µM
27 | O=C1Cc2c([nH]c3ccc(Br)cc23)-c2ccccc2N1 [Kenpaullone] | 1.86 ± 0.27 µM |  |  | 
28 | C=C1C(=O)O[C@H]2[C@H]1CC/C(C)=C/CC[C@@]1(C)O[C@@H]21 [Parthenolide] |  |  |  | EC50 [1, 8]: 1.06 ± 0.08 µM
29 | CC[C@@]1(O)C(=O)OCc2c1cc1n(c2=O)Cc2cc3ccccc3nc2-1 [(S)-(+)-Camptothecin] |  | 1.5 |  | EC50 ([1]; read-out: EC50 vs. T. brucei): 0.53 ± 0.013 µM; EC50 (MRC5 cells; read-out: EC50 vs. MRC5): 0.8 ± 0.099 µM
30 | CC(C)[C@@]1(NC(=O)[C@@H]2C[C@@H]3c4cccc5[nH]cc(c45)C[C@H]3N(C)C2)O[C@@]2(O)[C@@H]3CCCN3C(=O)[C@H](Cc3ccccc3)N2C1=O.CS(=O)(=O)O [Dihydroergocristine methanesulfonate] |  | 23 |  | EC50 ([1]; read-out: EC50 vs. T. brucei): 0.89 ± 0.057 µM
31 | CN(N=O)c1cc(O)ccc1O [Dephostatin] | > 10 µM |  |  | 
32 | C=CCc1ccccc1OCC(O)CNC1(C)CCC(C(C)(C)NC(=O)CBr)CC1 (centres unmarked) [Bromoacetyl alprenolol menthane] | 1.26 ± 0.14 µM |  |  | 
33 | O=[N+]([O-])c1ccc(CSc2ncnc3c2ncn3[C@@H]2O[C@H](CO)[C@@H](O)[C@H]2O)cc1 [S-(4-Nitrobenzyl)-6-thioinosine] | 3.78 ± 0.55 µM |  |  | 
34 | CC[C@H]1CN2CCc3cc(OC)c(OC)cc3[C@@H]2C[C@@H]1C[C@H]1NCCc2cc(OC)c(OC)cc21 [Emetine dihydrochloride hydrate] |  |  |  | EC50 [1, 4]: 0.0079 ± 0.00053 µM; EC50 (MRC5 cells; [5]): 0.03 ± 0.0031 µM
35 | Nc1nc2ccc(Cl)cc2c2nc(-c3ccco3)nn12 [CGS-15943, 9-Chloro-2-(2-furyl)[1,2,4]triazolo[1,5-c]quinazolin-5-amine] | 1.97 ± 0.21 µM |  |  | 
36 | Cc1ccc(C(=O)Nc2ccc(S(=O)(=O)O)c3cc(S(=O)(=O)O)cc(S(=O)(=O)O)c23)cc1NC(=O)c1cccc(NC(=O)Nc2cccc(C(=O)Nc3cc(C(=O)Nc4ccc(S(=O)(=O)O)c5cc(S(=O)(=O)O)cc(S(=O)(=O)O)c45)ccc3C)c2)c1 [Suramin hexasodium] | < 0.07 µM | >710 | > 50 µM | EC50 [1, 6]: 0.0201 ± 0.0011 µM; EC50 ([1]; read-out: EC50 vs. T. brucei): 0.068 ± 0.0035 µM; Selectivity / specificity for T. brucei over human fibroblasts (MRC5 cells): > 700 fold
37 | CC(=O)O[C@H]1C(=O)[C@@]2(C)[C@H]([C@H](OC(=O)c3ccccc3)[C@]3(O)C[C@H](OC(=O)[C@H](O)[C@@H](NC(=O)c4ccccc4)c4ccccc4)C(C)=C1C3(C)C)[C@]1(OC(C)=O)CO[C@@H]1C[C@@H]2O [Taxol] | 0.0033 ± 7.1e-05 µM | 2 | 0.0066 ± 0.0098 µM | 
38 | Dequalinium analogue, C-14 linker |  | 14 |  | EC50 ([1]; read-out: EC50 vs. T. brucei): 0.07 ± 0.0046 µM
39 | [N-]=[N+]=Nc1ccc(C(=O)CSC[C@H](NC(=O)CC[C@H](N)C(=O)O)C(=O)NCC(=O)O)cc1 [S-(p-Azidophenacyl)glutathione] |  |  |  | EC50 ([1]; read-out: EC50 vs. T. brucei): > 10 µM
40 | O=C1c2c(O)ccc(O)c2C(=O)c2c(NCCNCCO)ccc(NCCNCCO)c21 [Mitoxantrone] | 0.0024 ± 0.0002 µM | 46 | 0.11 ± 0.037 µM | 
41 | CC[C@]1(O)C[C@H]2CN(CCc3c([nH]c4ccccc34)[C@@](C(=O)OC)(c3cc4c(cc3OC)N(C=O)[C@H]3[C@@](O)(C(=O)OC)[C@H](OC(C)=O)[C@]5(CC)C=CCN6CC[C@]43[C@@H]65)C2)C1 [Vincristine sulfate] |  | 0.02 | 0.0006 ± 0.001 µM | EC50 [1, 4]: 0.03 ± 0.001 µM
42 | CC(=O)[C@]1(O)Cc2c(O)c3c(c(O)c2[C@@H](O[C@H]2C[C@H](N)[C@H](O)[C@H](C)O2)C1)C(=O)c1ccccc1C3=O [Idarubicin] | 0.02 ± 0.0015 µM | 3.9 | 0.078 ± 0.029 µM | 
43 | Nc1ncnc2c1nc(Sc1ccc(Cl)cc1)n2C1OC2COP(=O)(O)O[C@H]2C1O (stereo in doubt) [8-(4-Chlorophenylthio)-cAMP sodium] |  | 44 |  | 
44 | CCCN(CCC)CCc1ccc(O)c(O)c1 [Dipropyldopamine hydrobromide] | 1.29 ± 0.06 µM |  |  | 
45 | CC1CS(=O)(=O)CCN1/N=C/c1ccc([N+](=O)[O-])o1 (centres unmarked) [nifurtimox] |  |  |  | EC50 [1, 6]: 1.8 µM; EC50 [1, 7]: 1.81 ± 0.13 µM
46 | O=C1CC[C@@]2(O)[C@H]3Cc4ccc(O)c5c4[C@@]2(CCN3CC2CC2)[C@H]1O5 [Naltrexone] |  |  |  | EC50 ([1]; Trypanosoma brucei, read-out: EC50 of opioid receptor ligands against T. brucei): > 100 µM
47 | COc1cccc2c1C(=O)c1c(O)c3c(c(O)c1C2=O)C[C@@](O)(C(=O)CO)C[C@@H]3O[C@H]1C[C@H](N)[C@H](O)[C@H](C)O1 [Doxorubicin] |  |  |  | EC50 (MRC5 cells; Homo sapiens, MRC5, 72 h, read-out: EC50 against MRC5 (control drug)): 0.0859 ± 0.0382 µM
48 | CCCN1CCc2cccc3c2[C@H]1Cc1ccc(O)c(O)c1-3 [R(−)-Propylnorapomorphine hydrochloride] |  |  |  | EC50 ([1]; read-out: EC50 vs. T. brucei): 1.52 ± 0.21 µM
49 | Buprenorphine |  |  |  | Activity against T. brucei (in words) [1]: weak activity
50 | Nc1ncnc2c1nc(Sc1ccc(Cl)cc1)n2[C@H]1OC2COP(=O)(O)O[C@H]2[C@@H]1O (some centres unmarked) [8-(4-Chlorophenylthio)-cAMP sodium] |  |  |  | EC50 ([1]; read-out: EC50 vs. T. brucei): 0.4 ± 0.054 µM
